Reference: US6395739B1, “N-phenyl-N′-phenylpopylpiperazine derivatives and process for the preparation” (Zeria Pharmaceutical Co., Ltd., priority 1998, dated 2002)
Counter-ions that a name gives are not always drawn.

Key:
α1-adrenoceptor [1] = assay: α1-adrenoceptor blocking activity, phenylephrine-induced contraction of rabbit prostatic urethra smooth muscle strips; parameters: species or system Rabbits; conditions: rabbit prostatic urethra strip; vs phenylephrine concentration-response curve; test drug 10^-7-10^-5 M for 30 minutes; 10^-5 M propranolol present
Method: (§1) <α1-Adrenoceptor Blocking Activity>
(§2) Rabbits were exsanguinated to death, and the prostatic urethra and the prostate were removed and smooth muscle strips were prepared. Each strip was suspended in a 37° C. Krebs-solution-containing organ bath which had been bubbled with 95% O2 and 5% CO2. Isometric contraction under a resting tension of 1 g was recorded by an isometric transducer (by Nihon Koden: TB-651T) on a pen-type recorder (product of Nihon Denki San'ei: RECTI HORIZ 8K).
(§3) After the strips had been equilibrated for 60 minutes, contractions were elicited by use of a certain concentration of phenylephrine (10^−5 M). Subsequently, the organ bath was washed with a physiological solution, and the above procedure was repeated at 60-minute intervals of resting time until constant constriction responses of the strips were obtained. Next, phenylephrine was added cumulatively to organ bath(10^−7-3×10^−4 M), to thereby obtain concentration-response curves (control). After the resting period of 60 minutes following washing of the strip, test samples (DMSO solutions containing the test drug; 10^−7-10^−5 M) were treated for 30 minutes, and concentration-response curves of phenylephrine were obtained.
(§4) The composition of the physiological solution was as follows: NaCl 118.4 mM, KCl 4.7 mM, MgCl2 1.2 mM, CaCl2 2.5 mM, NaHCO3 25.0 mM, glucose […], and KH2PO4 1.2 mM.
(§5) In all cases, 10^−5 M propranolol (β-adrenoceptor antagonist) was added to the physiological solution 10 minutes before test sample was treated with strip.
(§6) The potency of each test drug with regard to the α1-adrenoceptor blocking activity was evaluated on the basis of calculation of pA2 (inverse of the logarithm of the concentration by mole of the antagonist which, in the presence of the antagonist, requires twice the concentration of the agonist for providing the same effect as required in the absence of the antagonist).

α1-adrenoceptor [2] = assay: α1-adrenoceptor blocking activity, phenylephrine-induced contraction of rabbit prostate smooth muscle strips; parameters: species or system Rabbits; conditions: rabbit prostate strip; vs phenylephrine concentration-response curve; test drug 10^-7-10^-5 M for 30 minutes; 10^-5 M propranolol present
Method: as §1, §2, §3, §4, §5, §6

## COc1ccccc1N1CCN(CC[C@H](Oc2ccc(C#N)cc2)c2ccc(C)cc2)CC1 [Example 1, (S)-4-[3-[4-(2-methoxyphenyl)piperazin-1-yl]-1-(4-methylphenyl)propoxy]benzonitrile dihydrochloride]
α1-adrenoceptor [1]
  pA2 Urethra: 8.44
α1-adrenoceptor [2]
  pA2 prostate: 8.00

## COc1ccccc1N1CCN(CC[C@H](Oc2ccc(C(=O)O)cc2)c2ccc(C)cc2)CC1 [Example 2, (S)-4-[3-[4-(2-methoxyphenyl)piperazin-1-yl]-1-(4-methylphenyl)propoxy]benzoic acid]
α1-adrenoceptor [1]
  pA2 Urethra: 8.73
α1-adrenoceptor [2]
  pA2 prostate: 8.67

## COc1ccccc1N1CCN(CC[C@H](Oc2ccc(C(=O)c3c[nH]c4ccccc34)cc2)c2ccc(C)cc2)CC1.Cl [Example 3, (S)-3-[4-[3-[4-(2-methoxyphenyl)piperazin-1-yl]-1-(4-methylphenyl)propoxy]benzoyl]indole hydrochloride]
α1-adrenoceptor [1]
  pA2 Urethra: 6.29
α1-adrenoceptor [2]
  pA2 prostate: 6.89
